Test results published in patent publication US11951108B2, “Combination therapy for treating cancer” (Epizyme, Inc., priority 2016, dated 2024).
Read-outs that look alike come from different tables or passages of the source.

Tests used:
[1] = test system: MDA-MB-453; experiment: In vitro combination study, breast cancer cell line MDA-MB-453; format: cell-based; conditions: ER/PR −/−, HER2 −, 7 day pre-treatment + 6 day co-treatment
[2] = test system: SUM52PE; experiment: In vitro combination study, breast cancer cell line SUM52PE; conditions: ER/PR −/−, HER2 −, 7 day pre-treatment + 6 day co-treatment
[3] = test system: MDA-MB-175VII; experiment: In vitro combination study, breast cancer cell line MDA-MB-175VII; conditions: ER/PR +/+, HER2 +, 7 day pre-treatment + 6 day co-treatment
[4] = test system: COV434; conditions: 4+3 model
[5] = test system: OV-90; experiment: In vitro combination study, ovarian cancer cell line OV-90; conditions: OV-90; 4+3 model
[6] = test system: SKOV3; experiment: In vitro combination study, ovarian cancer cell line SKOV3; conditions: 4+3 model
[7] = test system: OVMANA; experiment: In vitro combination study, ovarian cancer cell line OVMANA; conditions: OVMANA; 4+3 model
[8] = test system: COV362; experiment: In vitro combination study, ovarian cancer cell line COV362; conditions: COV362; 4+3 model
[9] = test system: TOV112D; experiment: In vitro combination study, ovarian cancer cell line TOV112D; conditions: 4+3 model
[10] = test system: KURAMOCHI; experiment: In vitro combination study, ovarian cancer cell line KURAMOCHI; conditions: KURAMOCHI; 4+3 model
[11] = test system: TOV21G; experiment: In vitro combination study, ovarian cancer cell line TOV21G; format: cell-based; conditions: 4+3 model
[12] = test system: CAOV-3; experiment: In vitro combination study, ovarian cancer cell line CAOV-3; format: cell-based; conditions: 4+3 model
[13] = test system: COV504; conditions: COV504; 4+3 model
[14] = test system: ES-2; experiment: In vitro combination study, ovarian cancer cell line ES-2; conditions: 4+3 model
[15] = test system: A2780; experiment: In vitro combination study, ovarian cancer cell line A2780; conditions: A2780; 4+3 model
[16] = test system: HCC1143; experiment: In vitro combination study, breast cancer cell line HCC1143; conditions: ER/PR −/−, HER2 −, 7 day pre-treatment + 6 day co-treatment
[17] = test system: HCC1419; experiment: In vitro combination study, breast cancer cell line HCC1419; conditions: ER/PR −/−, HER2 +, 7 day pre-treatment + 6 day co-treatment
[18] = test system: OVMANA
[19] = test system: RMUGS*
[20] = test system: SKOV3
[21] = test system: COV644*; experiment: In vitro combination study, ovarian cancer cell line COV644; conditions: COV644*; 7+3 model
[22] = test system: HCC1569
[23] = test system: MDA-MB-231; experiment: In vitro combination study, breast cancer cell line MDA-MB-231; conditions: ER/PR −/−, HER2 −, 7 day pre-treatment + 6 day co-treatment
[24] = test system: SUM159PT
[25] = test system: HCC1143
[26] = test system: MDA-MB-468
[27] = test system: HCC38
[28] = test system: DU4475
[29] = test system: OV-90
[30] = test system: BT-20; experiment: In vitro combination study, breast cancer cell line BT-20; conditions: ER/PR −/−, HER2 −, 7 day pre-treatment + 6 day co-treatment
[31] = test system: DU4475; experiment: In vitro combination study, breast cancer cell line DU4475; conditions: ER/PR −/−, HER2 −, 7 day pre-treatment + 6 day co-treatment
[32] = test system: OVISE; experiment: In vitro combination study, ovarian cancer cell line OVISE; conditions: OVISE; 4+3 model
[33] = test system: JH)S-4; experiment: In vitro combination study, ovarian cancer cell line JH)S-4; conditions: 4+3 model
[34] = test system: JH)S-4
[35] = test system: OAW42
[36] = test system: A2780
[37] = test system: HCC1187; experiment: In vitro combination study, breast cancer cell line HCC1187; conditions: ER/PR −/−, HER2 −, 7 day pre-treatment + 6 day co-treatment

With `Cc1cc(Nc2cc(N3CCN(C)CC3)nc(/C=C/c3ccccc3)n2)n[nH]1` [ENMD-2076] the “Synergy or antagonism of second agent with tazemetostat (IC50 shift of second agent)” value [1] was “A (Antagonism)”, the “Synergy or antagonism of second agent with tazemetostat (IC50 shift of second agent)” value [2] was “C (Synergy > 2× IC50 shift)” and the “Synergy or antagonism of second agent with tazemetostat (IC50 shift of second agent)” value [3] was “C (Synergy > 2× IC50 shift)”.

`Nc1ccccc1NC(=O)c1ccc(CNc2nccc(-c3cccnc3)n2)cc1` [Mocetinostat] was tested, and the “Synergy or antagonism of second agent with tazemetostat (IC50 shift of second agent)” value [4] was “C (Synergy > 2× IC50 shift)”, the “Synergy or antagonism of second agent with tazemetostat (IC50 shift of second agent)” value [5] was “C (Synergy > 2× IC50 shift)” and the “Synergy or antagonism of second agent with tazemetostat (IC50 shift of second agent)” value [6] was “B (Synergy > 4× IC50 shift)”. For the same compound, the “Synergy or antagonism of second agent with tazemetostat (IC50 shift of second agent)” value [7] was “C (Synergy > 2× IC50 shift)”, the “Synergy or antagonism of second agent with tazemetostat (IC50 shift of second agent)” value [8] was “C (Synergy > 2× IC50 shift)” and the “Synergy or antagonism of second agent with tazemetostat (IC50 shift of second agent)” value [9] was “C (Synergy > 2× IC50 shift)”. The “Synergy or antagonism of second agent with tazemetostat (IC50 shift of second agent)” value [10] was “C (Synergy > 2× IC50 shift)”.

For `Cc1sc2c(c1C)C(c1ccc(Cl)cc1)=N[C@@H](CC(=O)OC(C)(C)C)c1nnc(C)n1-2` [JQ1], the “Synergy or antagonism of second agent with tazemetostat (IC50 shift of second agent)” value [11] was “C (Synergy > 2× IC50 shift)”, the “Synergy or antagonism of second agent with tazemetostat (IC50 shift of second agent)” value [12] was “B (Synergy > 4× IC50 shift)” and the “Synergy or antagonism of second agent with tazemetostat (IC50 shift of second agent)” value [13] was “C (Synergy > 2× IC50 shift)”. The “Synergy or antagonism of second agent with tazemetostat (IC50 shift of second agent)” value [14] was “C (Synergy > 2× IC50 shift)”, the “Synergy or antagonism of second agent with tazemetostat (IC50 shift of second agent)” value [5] was “C (Synergy > 2× IC50 shift)” and the “Synergy or antagonism of second agent with tazemetostat (IC50 shift of second agent)” value [6] was “B (Synergy > 4× IC50 shift)”. For the same compound, the “Synergy or antagonism of second agent with tazemetostat (IC50 shift of second agent)” value [15] was “B (Synergy > 4× IC50 shift)”, the “Synergy or antagonism of second agent with tazemetostat (IC50 shift of second agent)” value [16] was “C (Synergy > 2× IC50 shift)” and the “Synergy or antagonism of second agent with tazemetostat (IC50 shift of second agent)” value [17] was “C (Synergy > 2× IC50 shift)”. The “Synergy or antagonism of second agent with tazemetostat (IC50 shift of second agent)” value [9] was “C (Synergy > 2× IC50 shift)”.

With `COc1cccc2c1C(=O)c1c(O)c3c(c(O)c1C2=O)C[C@@](O)(C(=O)CO)C[C@@H]3O[C@H]1C[C@H](N)[C@H](O)[C@H](C)O1` [Doxorubicin] the “Synergy or antagonism of second agent with tazemetostat (IC50 shift of second agent)” value [18] was “C (key: B: Synergy > 4× IC50 shift; Synergy > 2× IC50 shift; No Effect; Antagonism; X: Not Tested)”, the “Synergy or antagonism of second agent with tazemetostat (IC50 shift of second agent)” value [19] was “B (key: B: Synergy > 4× IC50 shift; Synergy > 2× IC50 shift; No Effect; Antagonism; X: Not Tested)” and the “Synergy or antagonism of second agent with tazemetostat (IC50 shift of second agent)” value [20] was “B (key: B: Synergy > 4× IC50 shift; Synergy > 2× IC50 shift; No Effect; Antagonism; X: Not Tested)”. The “Synergy or antagonism of second agent with tazemetostat (IC50 shift of second agent)” value [14] was “C (Synergy > 2× IC50 shift)” and the “Synergy or antagonism of second agent with tazemetostat (IC50 shift of second agent)” value [21] was “C (Synergy > 2× IC50 shift)”.

In the case of `Cc1nc(Nc2ncc(C(=O)Nc3c(C)cccc3Cl)s2)cc(N2CCN(CCO)CC2)n1` [Dasatinib], the “Synergy or antagonism of second agent with tazemetostat (IC50 shift of second agent)” value [22] is reported as “C (key: B: Synergy > 4× IC50 shift; Synergy > 2× IC50 shift; No Effect; Antagonism; X: Not Tested)”, the “Synergy or antagonism of second agent with tazemetostat (IC50 shift of second agent)” value [2] is reported as “B (Synergy > 4× IC50 shift)” and the “Synergy or antagonism of second agent with tazemetostat (IC50 shift of second agent)” value [23] is reported as “C (Synergy > 2× IC50 shift)”.

In the case of `COc1cc([C@@H]2c3cc4c(cc3[C@@H](O[C@@H]3O[C@@H]5CO[C@@H](C)O[C@H]5[C@H](O)[C@H]3O)[C@H]3COC(=O)[C@H]23)OCO4)cc(OC)c1O` [Etoposide], the “Synergy or antagonism of second agent with tazemetostat (IC50 shift of second agent)” value [24] is reported as “C (key: B: Synergy > 4× IC50 shift; Synergy > 2× IC50 shift; No Effect; Antagonism; X: Not Tested)” and the “Synergy or antagonism of second agent with tazemetostat (IC50 shift of second agent)” value [25] is reported as “C (key: B: Synergy > 4× IC50 shift; Synergy > 2× IC50 shift; No Effect; Antagonism; X: Not Tested)”.

For `Nc1ncn([C@@H]2O[C@H](CO)[C@@H](O)[C@H]2O)c(=O)n1` [Azacitidine], the “Synergy or antagonism of second agent with tazemetostat (IC50 shift of second agent)” value [26] was “C (key: B: Synergy > 4× IC50 shift; Synergy > 2× IC50 shift; No Effect; Antagonism; X: Not Tested)”, the “Synergy or antagonism of second agent with tazemetostat (IC50 shift of second agent)” value [27] was “C (key: B: Synergy > 4× IC50 shift; Synergy > 2× IC50 shift; No Effect; Antagonism; X: Not Tested)” and the “Synergy or antagonism of second agent with tazemetostat (IC50 shift of second agent)” value [28] was “C (key: B: Synergy > 4× IC50 shift; Synergy > 2× IC50 shift; No Effect; Antagonism; X: Not Tested)”. For the same compound, the “Synergy or antagonism of second agent with tazemetostat (IC50 shift of second agent)” value [29] was “C (key: B: Synergy > 4× IC50 shift; Synergy > 2× IC50 shift; No Effect; Antagonism; X: Not Tested)” and the “Synergy or antagonism of second agent with tazemetostat (IC50 shift of second agent)” value [2] was “C (Synergy > 2× IC50 shift)”.

`Nc1cc(C(F)(F)F)c(-c2cc(N3CCOCC3)nc(N3CCOCC3)n2)cn1` [BKM120] was tested, and the “Synergy or antagonism of second agent with tazemetostat (IC50 shift of second agent)” value [13] was “C (Synergy > 2× IC50 shift)”, the “Synergy or antagonism of second agent with tazemetostat (IC50 shift of second agent)” value [4] was “C (Synergy > 2× IC50 shift)” and the “Synergy or antagonism of second agent with tazemetostat (IC50 shift of second agent)” value [30] was “C (Synergy > 2× IC50 shift)”. For the same compound, the “Synergy or antagonism of second agent with tazemetostat (IC50 shift of second agent)” value [31] was “A (Antagonism)”, the “Synergy or antagonism of second agent with tazemetostat (IC50 shift of second agent)” value [32] was “C (Synergy > 2× IC50 shift)” and the “Synergy or antagonism of second agent with tazemetostat (IC50 shift of second agent)” value [6] was “C (Synergy > 2× IC50 shift)”. For the same compound, the “Synergy or antagonism of second agent with tazemetostat (IC50 shift of second agent)” value [15] was “C (Synergy > 2× IC50 shift)”, the “Synergy or antagonism of second agent with tazemetostat (IC50 shift of second agent)” value [17] was “C (Synergy > 2× IC50 shift)” and the “Synergy or antagonism of second agent with tazemetostat (IC50 shift of second agent)” value [33] was “C (Synergy > 2× IC50 shift)”. For the same compound, the “Synergy or antagonism of second agent with tazemetostat (IC50 shift of second agent)” value [21] was “C (Synergy > 2× IC50 shift)”, the “Synergy or antagonism of second agent with tazemetostat (IC50 shift of second agent)” value [9] was “C (Synergy > 2× IC50 shift)” and the “Synergy or antagonism of second agent with tazemetostat (IC50 shift of second agent)” value [10] was “C (Synergy > 2× IC50 shift)”.

`CC(=O)O[C@H]1C(=O)[C@@]2(C)[C@H]([C@H](OC(=O)c3ccccc3)[C@]3(O)C[C@H](OC(=O)[C@H](O)[C@@H](NC(=O)c4ccccc4)c4ccccc4)C(C)=C1C3(C)C)[C@]1(OC(C)=O)CO[C@@H]1C[C@@H]2O` [Paclitaxel] was tested, and the “Synergy or antagonism of second agent with tazemetostat (IC50 shift of second agent)” value [28] was “B (key: B: Synergy > 4× IC50 shift; Synergy > 2× IC50 shift; No Effect; Antagonism; X: Not Tested)”, the “Synergy or antagonism of second agent with tazemetostat (IC50 shift of second agent)” value [34] was “C (key: B: Synergy > 4× IC50 shift; Synergy > 2× IC50 shift; No Effect; Antagonism; X: Not Tested)” and the “Synergy or antagonism of second agent with tazemetostat (IC50 shift of second agent)” value [19] was “C (key: B: Synergy > 4× IC50 shift; Synergy > 2× IC50 shift; No Effect; Antagonism; X: Not Tested)”. The “Synergy or antagonism of second agent with tazemetostat (IC50 shift of second agent)” value [35] was “B (key: B: Synergy > 4× IC50 shift; Synergy > 2× IC50 shift; No Effect; Antagonism; X: Not Tested)”, the “Synergy or antagonism of second agent with tazemetostat (IC50 shift of second agent)” value [20] was “C (key: B: Synergy > 4× IC50 shift; Synergy > 2× IC50 shift; No Effect; Antagonism; X: Not Tested)” and the “Synergy or antagonism of second agent with tazemetostat (IC50 shift of second agent)” value [36] was “C (key: B: Synergy > 4× IC50 shift; Synergy > 2× IC50 shift; No Effect; Antagonism; X: Not Tested)”. The “Synergy or antagonism of second agent with tazemetostat (IC50 shift of second agent)” value [14] was “C (Synergy > 2× IC50 shift)”, the “Synergy or antagonism of second agent with tazemetostat (IC50 shift of second agent)” value [37] was “C (Synergy > 2× IC50 shift)” and the “Synergy or antagonism of second agent with tazemetostat (IC50 shift of second agent)” value [21] was “C (Synergy > 2× IC50 shift)”.
